Measured values: patent US10434112B2, “Use of agonists of formyl peptide receptor 2 for treating dermatological diseases” (Allergan, Inc., priority 2013, dated 2019)

target: human FPR2 receptor (Homo sapiens (Human), UniProt P25090); experiment: FLIPR Ca+2 response in HEK-Gα16 cells stably expressing the human FPR2 receptor; type: cell-based; design: FPR2 (% eff): unit not given here; conditions: Table 4; value in brackets, given mostly as fraction
Method in brief: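 HEK-Gα16 cells stably expressing human FPR2, loaded with 2 μM Fluo-4 in HBSS/20 mM HEPES for 40 min at 37° C., then washed. Ligands added in HBSS/Hepes and Ca+2 responses recorded on FLIPR in relative fluorescence units.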

Chain of human FPR2 receptor (P25090 whole entry): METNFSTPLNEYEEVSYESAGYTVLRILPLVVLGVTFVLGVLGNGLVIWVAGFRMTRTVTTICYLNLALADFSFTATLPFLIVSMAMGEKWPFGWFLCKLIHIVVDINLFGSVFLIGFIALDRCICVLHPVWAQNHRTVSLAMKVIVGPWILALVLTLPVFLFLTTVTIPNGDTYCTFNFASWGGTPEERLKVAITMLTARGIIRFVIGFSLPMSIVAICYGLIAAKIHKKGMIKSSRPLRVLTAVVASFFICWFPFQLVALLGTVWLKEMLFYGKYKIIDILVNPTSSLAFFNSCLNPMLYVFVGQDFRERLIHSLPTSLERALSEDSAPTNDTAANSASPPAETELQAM

Point of comparison: `CCOP(=O)(O)CNC(=O)[C@H](CC(C)C)NC(=O)Nc1ccc(C(F)(F)F)cc1` [Compound 135, ethyl hydrogen ({[(2S)-4-methyl-2-({[4-(trifluoromethyl)phenyl]carbamoyl}amino)pentanoyl]amino}methyl)phosphonate], “FPR2 (% eff)” value 0.91. Against it:
- CC(C)C[C@H](NC(=O)Nc1ccc(Br)cc1)C(=O)NCP(=O)(OC(C)C)OC(C)C [Compound 131, dipropan-2-yl({[(2S)-2-{[(4-bromophenyl)carbamoyl]amino}-4-methylpentanoyl]amino}methyl)phosphonate] — higher, 1.0
- CC(C)C1(CO)NC(=O)N(NC(=O)Nc2ccc(Br)cc2)C1=O (centres unmarked) [Compound 132, 1-(4-bromophenyl)-3[4-(hydroxymethyl)-2,5-dioxo-4-(propan-2-yl)imidazolidin-1-yl]urea] — lower, 0.86
- CC(C)C1(CC(=O)NCCO)NC(=O)N(NC(=O)Nc2ccc(Br)cc2)C1=O (centres unmarked) [Compound 133, 2-[1-{[(4-bromophenyl)carbamoyl]amino}-2,5-dioxo-4-(propan-2-yl)imidazolidin-4-yl]-N-(2-hydroxyethyl)acetamide] — higher, 1.0
- CCOP(=O)(CNC(=O)[C@H](CC(C)C)NC(=O)Nc1ccc(C(F)(F)F)cc1)OCC [Compound 134, diethyl ({[(2S)-4-methyl-2-({[4-(trifluoromethyl)phenyl]carbamoyl}amino)pentanoyl]amino}methyl)phosphonate] — higher, 0.97
- CC(C)C[C@H](NC(=O)Nc1ccc(C(F)(F)F)cc1)C(=O)NCc1nnn[nH]1 [Compound 136, (2S)-4-methyl-N-(1H-tetrazol-5-ylmethyl)-2-({[4-(trifluoromethyl)phenyl]carbamoyl}amino)pentanamide] — higher, 0.96
- CCOP(=O)(CNC(=O)[C@H](CC(C)C)NC(=O)Nc1ccc(SC)cc1)OCC [Compound 138, diethyl ({[(2S)-4-methyl-2-({[4-(methylsulfanyl)phenyl]carbamoyl}amino)pentanoyl]amino}methyl)phosphonate] — the same, 0.91
- CC(C)C[C@H](NC(=O)Nc1ccc(C(F)(F)F)cc1)C(=O)NC(C)(C)C(=O)O [Compound 139, 2-methyl-2-{[(2S)-4-methyl-2-({[4-(trifluoromethyl)phenyl]carbamoyl}amino)pentanoyl]amino}propanoic acid] — higher, 0.92
- CCC1(CCc2ccccc2C(=O)OC)NC(=O)N(NC(=O)Nc2ccc(Br)cc2)C1=O (centres unmarked) [Compound 141, methyl 2-[2-(1-{[(4-bromophenyl)carbamoyl]amino}-4-ethyl-2,5-dioxoimidazolidin-4-yl)ethyl]benzoate] — higher, 0.92
- CC(C)C1(CC(=O)NC(CO)CO)NC(=O)N(NC(=O)Nc2ccc(Br)cc2)C1=O (centres unmarked) [Compound 142, 2-[1-{[(4-bromophenyl)carbamoyl]amino}-2,5-dioxo-4-(propan-2-yl)imidazolidin-4-yl]-N-(1,3-dihydroxypropan-2-yl)acetamide] — higher, 0.92
- CCC1(CCc2ccccc2C(=O)O)NC(=O)N(NC(=O)Nc2ccc(Br)cc2)C1=O (centres unmarked) [Compound 143, 2-[2-(1-{[(4-bromophenyl)carbamoyl]amino}-4-ethyl-2,5-dioxoimidazolidin-4-yl)ethyl]benzoic acid] — higher, 1.0
- CSCC[C@H](NC(=O)Nc1ccc(Br)cc1)C(=O)NCC(=O)O [Compound 144, {[(2S)-2-{[(4-bromophenyl)carbamoyl]amino}-4-(methylsulfanyl)butanoyl]amino}acetic acid] — the same, 0.91
- CC(C)C1(CC(=O)NCCC(=O)O)NC(=O)N(NC(=O)Nc2ccc(Br)cc2F)C1=O (centres unmarked) [Compound 145, 3-({[1-{[(4-bromo-2-fluorophenyl)carbamoyl]amino}-2,5-dioxo-4-(propan-2-yl)imidazolidin-4-yl]acetyl}amino)propanoic acid] — higher, 1.0
- CCC1(CCc2ccccc2C(=O)O)NC(=O)N(NC(=O)Nc2ccc(Br)cc2F)C1=O (centres unmarked) [Compound 146, 2-[2-(1-{[(4-bromo-2-fluorophenyl)carbamoyl]amino}-4-ethyl-2,5-dioxoimidazolidin-4-yl)ethyl]benzoic acid] — higher, 1.0
